Laboratory results as given in patent US11479587B2, “Cationic intrinsically disordered antimicrobial peptides” (priority 2016, dated 2022).
“And” between values parts separate entries of the source, which are not always exact repeats. Equal entries are not always repeated. Non-standard residues stand in square brackets, D forms with d. Residues, ends and D or L forms follow the SMILES beside them. No end group written: not given here. *: point of attachment. Palmitoyl = CCCCCCCCCCCCCCCC(=O)*; dOrn = NCCC[C@@H](N)C(=O)O

Tests used:
[1] = Cytotoxicity (resazurin) assay
Method: For the cytotoxicity (resazurin) assay, HEK293 cells were counted manually in a Neubauer haemocytometer and plated at a density of 4000 cells/well into each well of the 384-well plates containing the 25×(2 μl) concentrated compounds. The medium used was Dulbecco's modified eagle medium (DMEM) supplemented with 10% foetal bovine serum (FBS). Cells were incubated together with the compounds for 20 h at 37° C., 5% CO2. To measure cytotoxicity, 5 μl (equals 100 μM final) resazurin was added to each well after incubation, and incubated for further 3 h at 37° C. with 5% CO2.
After final incubation fluorescence intensity was measured as F ex 560/10 nm, em 590/10 nm (F560/590) using a Tecan M1000 Pro monochromator plate reader. […] The concentration dependent percentage cytotoxicity was fitted to a dose response function (using Pipeline Pilot) and CC50 values determined.

Hemolysis assay = assay type: cell-based; conditions: for HC50 at 1 h: human, washed erythrocytes from EDTA-blood, pH 7.4
Method: For the hemolysis assays EDTA-blood was centrifuged at 800×g for 10 min, and the plasma and buffy coat were removed. The erythrocytes were washed three times and resuspended in 5% PBS, pH 7.4. The cells were then incubated with end-over-end rotation for 1 h at 37° C. in the presence of different concentrations of peptides (0, 3, 10, 30, 60 μm). 0.1% Triton X-100 (Sigma-Aldrich) served as positive control. The samples were then centrifuged at 800×g for 10 min.
The absorbance of hemoglobin release was measured at 540 nm and is expressed as % of Triton X-100-induced hemolysis. These values of triplicates were plotted with Graph Pad Prism 4 as a dose response curve and the CC50 was determined.

S. aureus ATCC 6538 = assay: CFU-assay, S. aureus-cidal activity; assay type: cell-based, Staphylococcus aureus
Method: Thus, within the present invention, the antimicrobial activity is generally measured in nutrient deficient 10 mM sodium phosphate buffer pH 5.5, containing 0.25% glucose, using the CFU-assay according to Steinberg and Lehrer, 1997 (supra), unless otherwise indicated. The CFU-assay allows determination of the minimal bactericidal concentration (MBC, e.g., MBC90 and MBC100; i.e. the concentration of compound required to achieve a specified reduction in bacterial cell number (microbial death or killing)).
Various peptides corresponding to repeat domains of hornerin (HR 1-11: HRNR 2606-2628; HR 1-17: HRNR 2656-2684 and HR 1-18: HRNR 2656-2677) were tested for P. aeruginosa ATCC 10145-cidal activity in 10 mM Na-phosphate buffer pH 5.5, containing 0.25% glucose by counting the numbers of colonies of surviving bacteria at serial, twofold dilutions from 300 μg/ml down to 19 ng/ml of each peptide (CFU-assay; Steinberg and Lehrer, 1997, Methods Mol. Biol. 78, 169-186).
Staphylococcus aureus is a major skin pathogen, which causes skin infections, in particular in atopic dermatitis. The sensitivity of S. aureus ATCC 6538 towards several CIDAMPs was assessed using the CFU-assay as above (see Example 1). HR 1-18, which lacks S. aureus.-bactericidal activity, is converted in a S. aureus-cidal peptide, when all His are replaced by Arg (HR 1-18 4H-4R; see Table 13 and FIG. 9). […] HR 1-18 4H-4R is rich in Ser and Arg and contains a single Leu residue. When this single Leu was replaced by Gly in S. aureus-cidal HR 1-18 4H-4R (forming HR 1-18 4H-4R/L-G), S. aureus-cidal activity was abolished at both pH 7.0 and pH 5.5 (see Table 13 and FIG. 9).

P. aeruginosa ATCC 10145 = assay: CFU-assay, P. aeruginosa-cidal activity; assay type: cell-based, Pseudomonas aeruginosa; conditions: pH 5.0, 0.25% glucose

Compound	CC50 [1]	HC50 (Hemolysis assay) [µg/mL]	also measured
N=C(N)NCCC[C@H](NC(=O)[C@H](Cc1c[nH]cn1)NC(=O)[C@H](CO)NC(=O)[C@H](CCCNC(=N)N)NC(=O)[C@H](CCCNC(=N)N)NC(=O)[C@H](CS)NC(=O)[C@H](CCCNC(=N)N)NC(=O)[C@H](Cc1c[nH]cn1)NC(=O)[C@H](Cc1c[nH]cn1)NC(=O)[C@@H](N)CO)C(=O)N[C@@H](CS)C(=O)O [LCE3A50-60] (H-SHHRCRRSHRC-OH)	> 32 µg/mL		
CCCCCCCCCCCCCCCC(=O)NCC(=O)N[C@H](CCCNC(=N)N)C(=O)N[C@H](CCCNC(=N)N)C(=O)NCC(=O)NCC(=O)N[C@H](CCCNC(=N)N)C(=O)NCC(=O)NCC(=O)N[C@H](CCCNC(=N)N)C(=O)O [D-Pal-GR9] (HELM PEPTIDE1{[CCCCCCCCCCCCCCCC(=O)[*:2]].G.[dR].[dR].G.G.[dR].G.G.[dR]}$$$$V2.0)	> 32 µg/mL	> 100	
GRHGSGLGHSSSHGQHGSGSGR [HR 1-18]	> 32 µg/mL and > 15.2 µM	> 300	CC50/MBC90 (S.aureus) (S. aureus ATCC 6538; pH 5.5): No activity; HC50 at 1 h (Hemolysis assay): > 143 µM
SRRSSSLSRSSSRSSRSSSSSR (Modified peptide derived from human hornerin (HR 1-18 4H-4R/9G-9S))			MBC90 (P. aeruginosa ATCC 10145): 0.15 µg/mL; MBC100 (P. aeruginosa ATCC 10145): 1.18 µg/mL; MBC90 (S. aureus ATCC 6538; pH 5.5, 0.25% glucose): 150 µg/mL; MBC100 (S. aureus ATCC 6538; pH 5.5, 0.25% glucose): >300 µg/mL; MBC90 (S. aureus ATCC 6538; pH 7.2, 0.25% glucose): 75 µg/mL; MBC100 (S. aureus ATCC 6538; pH 7.2, 0.25% glucose): >300 µg/mL
GRRGSGLGRSSSRGQRGSGSGR [HR 1-18 HR]	> 32 µg/mL	> 300	
N=C(N)NCCC[C@H](NC(=O)[C@H](CC(=O)O)NC(=O)[C@H](CS)NC(=O)[C@H](CO)NC(=O)[C@H](CC(N)=O)NC(=O)[C@H](CO)NC(=O)[C@H](CCCNC(=N)N)NC(=O)[C@H](CCC(N)=O)NC(=O)[C@H](CCCNC(=N)N)NC(=O)[C@H](CCCNC(=N)N)NC(=O)[C@H](CS)NC(=O)[C@H](CCC(N)=O)NC(=O)[C@H](Cc1c[nH]cn1)NC(=O)[C@H](CO)NC(=O)[C@H](CCCNC(=N)N)NC(=O)[C@H](Cc1ccccc1)NC(=O)[C@H](Cc1c[nH]cn1)NC(=O)[C@H](CCCNC(=N)N)NC(=O)[C@H](Cc1c[nH]cn1)NC(=O)[C@H](Cc1c[nH]cn1)NC(=O)[C@@H](N)CO)C(=O)O [LCE3C55-75] (H-SHHRHFRSHQCRRQRSNSCDR-OH)	> 32 µg/mL	> 300	
GRRGSGGGRSSSRGGRGSGSGR (Modified peptide derived from human hornerin (HR 1-18 4H-4R/L-G))			MBC90 (P. aeruginosa ATCC 10145): 0.038 µg/mL; MBC100 (P. aeruginosa ATCC 10145): 0.15 µg/mL; MBC90 (S. aureus ATCC 6538; pH 5.5, 0.25% glucose): >300 µg/mL; MBC100 (S. aureus ATCC 6538; pH 5.5, 0.25% glucose): >300 µg/mL; S. aureus-cidal activity (in words) (S. aureus ATCC 6538; pH 7.0 and pH 5.5): abolished
SHHRHFRSHQCRR [LCE3C55-67]	> 32 µg/mL	> 300	
SHHRPRLFHRRRH [LCE2B74-86]	> 32 µg/mL	> 300	
LRHGSGLGHSSSHGQHGSGSGR (Modified peptide derived from human hornerin (HR 1-18 G2656L))			MBC90 (P. aeruginosa ATCC 10145): 4.7 µg/mL; MBC100 (P. aeruginosa ATCC 10145): >300 µg/mL; MBC90 (S. aureus ATCC 6538; pH 5.5, 0.25% glucose): 300 µg/mL; MBC100 (S. aureus ATCC 6538; pH 5.5, 0.25% glucose): >300 µg/mL
CCCCCCCCCCCCCCCC(=O)NCC(=O)N[C@H](CCCNC(=N)N)C(=O)NCC(=O)N[C@H](CCCNC(=N)N)C(=O)O [D-Pal-GR4, Pal-GRDGRD] (HELM PEPTIDE1{[CCCCCCCCCCCCCCCC(=O)[*:2]].G.[dR].G.[dR]}$$$$V2.0)	> 32 µg/mL	300	
GRRGGRGGRGRGR [GR13]	> 23.6 µM		HC50 at 1 h (Hemolysis assay): > 220 µM
CCCCCCCCCCCCCC(=O)NCC(=O)N[C@@H](CCCNC(=N)N)C(=O)N[C@@H](Cc1c[nH]cn1)C(=O)NCC(=O)N[C@@H](CO)C(=O)NCC(=O)N[C@@H](CC(C)C)C(=O)NCC(=O)N[C@@H](Cc1c[nH]cn1)C(=O)N[C@@H](CO)C(=O)N[C@@H](CO)C(=O)N[C@@H](CO)C(=O)N[C@@H](Cc1c[nH]cn1)C(=O)NCC(=O)N[C@@H](CCC(N)=O)C(=O)N[C@@H](Cc1c[nH]cn1)C(=O)NCC(=O)N[C@@H](CO)C(=O)NCC(=O)N[C@@H](CO)C(=O)NCC(=O)N[C@@H](CCCNC(=N)N)C(=O)O [Myr-HR 1-18] (HELM PEPTIDE1{[CCCCCCCCCCCCCC(=O)[*:2]].G.R.H.G.S.G.L.G.H.S.S.S.H.G.Q.H.G.S.G.S.G.R}$$$$V2.0)	32 µg/mL	> 300	
CCCCCCCCCCCCCCCC(=O)NCC(=O)N[C@@H](CCCCN)C(=O)NCC(=O)N[C@@H](CCCCN)C(=O)O [Pal-GK4, Pal-GKGK] (HELM PEPTIDE1{[CCCCCCCCCCCCCCCC(=O)[*:2]].G.K.G.K}$$$$V2.0)	> 32 µg/mL	50	
NHHRRHHRCR [LCE3D55-64]	> 32 µg/mL		
SHHRRRRSHCH [LCE1B78-88]	> 32 µg/mL		
CCCCCCCCCCCCCCCC(=O)SC[C@H](NC(=O)[C@H](CCCNC(=N)N)NC(=O)CNC(=O)[C@H](CCCNC(=N)N)NC(=O)CNC(=O)[C@H](CCCNC(=N)N)NC(=O)CNC(=O)CNC(=O)[C@H](CCCNC(=N)N)NC(=O)CNC(=O)CNC(=O)[C@H](CCCNC(=N)N)NC(=O)[C@H](CCCNC(=N)N)NC(=O)CN)C(N)=O [C-Pal-GR13] (H-GRRGGRGGRGRGRC(Palmitoyl)-NH2)	> 32 µg/mL		
SHHRPRLFHRHRH [LCE2A70-82]	> 32 µg/mL		
SHHRHFRSHQCR [LCE3C55-66]	> 32 µg/mL		
CCCCCCCCCCCCCCCC(=O)NCC(=O)N[C@H](CCCCN)C(=O)NCC(=O)N[C@H](CCCCN)C(=O)O [D-Pal-GK4, D-Pal-GKDGKD] (HELM PEPTIDE1{[CCCCCCCCCCCCCCCC(=O)[*:2]].G.[dK].G.[dK]}$$$$V2.0)	> 32 µg/mL	40	
CCCCCCCCCCCCCCCC(=O)NCC(=O)N[C@@H](CCCN)C(=O)NCC(=O)N[C@@H](CCCN)C(=O)O [Pal-GOrn4, Pal-GOGO] (HELM PEPTIDE1{[CCCCCCCCCCCCCCCC(=O)[*:2]].G.[Orn].G.[Orn]}$$$$V2.0)	> 32 µg/mL	80	
HAHSGHGQSTQRGSRTAGR [FLG-22082-2100]	> 12.9 µM		HC50 at 1 h (Hemolysis assay): > 121 µM
SGHSSVFGQHESGSGHSSAYSQHGSGSGHFC-Pal* (SGHSSVFGQHESGSGHSSAYSQHGSGSGHFC(Palmitoyl)-NH2) [S-Pal-HRNR1748-1778]			MBC100 (S. aureus ATCC 6538; pH 5.5): 2.8 µM; MBC90 (S. aureus ATCC 6538; pH 5.5, 0.25% glucose): 0.3 µg/mL; MBC100 (S. aureus ATCC 6538; pH 5.5, 0.25% glucose): 9.38 µg/mL; MBC90 (S. aureus ATCC 6538; pH 5.5, 0.25% glucose (text)): 0.09 µM
CCCCCCCCCCCCCCCC(=O)NCC(=O)N[C@H](CCCN)C(=O)NCC(=O)N[C@H](CCCN)C(=O)O [D-Pal-GOrn4, D-Pal-GODGOD] (Palmitoyl-G[dOrn]G[dOrn]-OH)	> 32 µg/mL	55	
Pal-SHHRHFRSHQCRRQRSNSCDR (Palmitoyl-SHHRHFRSHQCRRQRSNSCDR; cysteine pairing not given here) [Pal-LCE3C55-75]			MBC90 (S. aureus ATCC 6538; pH 5.5, 0.25% glucose): 0.15 µg/mL; MBC100 (S. aureus ATCC 6538; pH 5.5, 0.25% glucose): 0.59 µg/mL
